Patent US10329304B2, “Compounds and methods for inhibition of hedgehog signaling and phosphodiesterase” (Vanderbilt University, priority 2014, dated 2019)
Where “and” joins values, the source holds several entries; their conditions need not be identical. Equal values may be shown once. Read-outs that look alike come from different tables or passages of the source.

Columns and labels:
MCF7 = assay: Cell viability assay (CellTiter-Blue, 72 hr); format: cell-based; conditions: human cancer cells; for EC50: MCF7, read-out: CELL KILLING EC50 (μM) Breast MCF7
Protocol: (§1) Cancer cell lines were seeded in 96 well tissue culture plate at a low density (10,000 cells per well) and treated with varying concentrations of Eggmanone. After 72 hr incubation, CellTiter-Blue Cell Viability Assay (Promega, Madison, Wis.) was then performed according to manufacturer's protocol. Absorbance was then measured in a Modulus Microplate reader (Promega, Madison, Wis.) at 590 nm and compared to cells treated with DMSO.
as §1, with “density” for “density (10,000 cells per well)”, “compounds identified in Table 7.” for “Eggmanone.”

PC3 = assay: Cell viability assay (CellTiter-Blue, 72 hr); format: cell-based; conditions: PC-3; human cancer cells; read-out: CELL KILLING EC50 (μM) Prostate PCx3
Protocol: as §1

PDE4D3 = target: T1, PDE4D3 (Homo sapiens, UniProt Q08499); assay: In vitro PDE assay; format: biochemical
T1 construct: purchased BPS Biosciences (San Diego, Calif.); kinetic studies by Millipore (St. Louis, Mo.)
Outline: (§2)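 Recombinant human PDE incubated 60 min at room temperature in duplicate with 100 nM FAM-cAMP in 10 mM Tris-HCl pH 7.4, 10 mM MgCl2, 0.05% Tween 20, 1% DMSO. FAM-AMP product captured by bead binding agent for 60 min, then fluorescence read at 485/528 nm.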

PDE4D2 = target: T2, PDE4D2 (Homo sapiens, UniProt Q08499); assay: In vitro PDE assay; format: biochemical
T2 construct: purchased BPS Biosciences (San Diego, Calif.)
Outline: as §2

B16F11 = assay: Cell viability assay (CellTiter-Blue, 72 hr); format: cell-based, Mouse; conditions: Mus musculus, B16-F10; Table 10; read-out: CELL KILLING EC50 (μM) Melanoma B16F10
Protocol: as §1
as §1, with “density” for “density (10,000 cells per well)”, “compounds identified in Table 7.” for “Eggmanone.”

RKO = assay: Cell viability assay (CellTiter-Blue, 72 hr); format: cell-based, Human; conditions: for EC50: RKO
Protocol: as §1
as §1, with “density” for “density (10,000 cells per well)”, “compounds identified in Table 7.” for “Eggmanone.”

HeLa = assay: Cell viability assay (CellTiter-Blue, 72 hr); format: cell-based, Human; conditions: human cancer cells, read-out: CELL KILLING EC50 (μM) Cervix HeLa
Protocol: as §1
as §1, with “density” for “density (10,000 cells per well)”, “compounds identified in Table 7.” for “Eggmanone.”

RWGT2 = assay: Cell viability assay (CellTiter-Blue, 72 hr); format: cell-based, Human; conditions: human cancer cells; read-out: CELL KILLING EC50 (μM) Lung Squam, NSCLC RWGT2
Protocol: as §1
as §1, with “density” for “density (10,000 cells per well)”, “compounds identified in Table 7.” for “Eggmanone.”

DaoY = assay: Cell viability assay (CellTiter-Blue, 72 hr); format: cell-based, Human; conditions: Daoy; human cancer cells; read-out: CELL KILLING EC50 (μM) Medulloblastoma DaoY
Protocol: as §1
as §1, with “density” for “density (10,000 cells per well)”, “compounds identified in Table 7.” for “Eggmanone.”

DU145 = assay: Cell viability assay (CellTiter-Blue, 72 hr); format: cell-based, Human; conditions: DU-145; human cancer cells; read-out: CELL KILLING EC50 (μM) Prostate DU145
Protocol: as §1
as §1, with “density” for “density (10,000 cells per well)”, “compounds identified in Table 7.” for “Eggmanone.”

HCT116 = assay: Cell viability assay (CellTiter-Blue, 72 hr); format: cell-based, Human; conditions: HCT-116; human cancer cells; read-out: CELL KILLING EC50 (μM) Colon HTC116
Protocol: as §1
as §1, with “density” for “density (10,000 cells per well)”, “compounds identified in Table 7.” for “Eggmanone.”

MDA-MB- 231 = assay: Cell viability assay (CellTiter-Blue, 72 hr); format: cell-based, Human; conditions: MDA-MB-231; human cancer cells; read-out: CELL KILLING EC50 (μM) Breast MDA-231
Protocol: as §1
as §1, with “density” for “density (10,000 cells per well)”, “compounds identified in Table 7.” for “Eggmanone.”

SW480 = assay: Cell viability assay (CellTiter-Blue, 72 hr); format: cell-based, Human
Protocol: as §1
as §1, with “density” for “density (10,000 cells per well)”, “compounds identified in Table 7.” for “Eggmanone.”

H82 = assay: Cell killing EC50 in H82 lung cancer cells (Table 10); format: cell-based; conditions: human cancer cells; for EC50: NCI-H82
Protocol: It is anticipated that compounds disclosed herein could serve as an anti-tumor, anti-angiogenic, anti-metastatic, agent in the treatment of cancer. To this end, a series of clinically relevant cancer lines were assayed and the cell-killing EC50s for compounds according to the subject matter disclosed herein are provided in Table 10.

[1] = tested on: Hedgehog signaling (Gli-Luc reporter); assay: Hh Gli-Luciferase reporter assay in Shh-Light2 cells; format: cell-based, mouse; conditions: Mus musculus, Shh Light2; for EC50: read-out: Shh Light2 Luc EC50
Protocol: For Hh signaling assays, Shh-Light2 cells stably transfected with Gli-Luciferase reporter construct were used along with Shh-conditioned media, as previously described^7. Alternatively, 3 μM purmorphamine or 20 nM Smoothened agonist (SAG) (Santa Cruz Biotechnology, Santa Cruz, Calif.) was used to induce Hh signaling. Reporter cells were seeded in 96-well plates and incubated overnight with the various concentrations of eggmanone and Shh-conditioned media. To assess the effects of overexpression of Gli-2, PDE4D3 and DN-PDE4D3 on Hh signaling, mammalian expression vectors containing these constructs were transfected into Shh-Light2 cells in 96-well plates using Fugene6 (Roche), according to manufacturer's instructions. The transfected or Shh-stimulated cells were incubated overnight with the various concentrations of compound. The cells were then lysed, and cell extracts were subjected to Steady-Glo luciferase assay (Promega) according to manufacturer's instructions. The results were normalized to cell titer, as determined using Cell Titer-Glo luminescence assay (Promega).

PDE4D = PDE4D (Homo sapiens, UniProt Q08499); assay: PDE4 inhibition assay (PDE4D IC50); format: biochemical; conditions: read-out: PDE4D IC50
Protocol: In vitro PDE profiling and dose-response assays were performed by BPS Biosciences (San Diego, Calif.). Kinetic Mechanism of inhibition studies were conducted by Millipore (St. Louis, Mo.). In brief, the PDE assay measures fluorescent polarization of FAM-AMP as FAM-cAMP is converted to FAM-AMP by PDE), the binding agent.
A series of dilutions of the test compound were prepared with 10% DMSO in assay buffer and 5 μl of the dilution was added to a 50 μl reaction so that the final concentration of DMSO is 1% in all of reactions. All of the PDE enzymatic reactions were conducted in duplicate at room temperature for 60 minutes in a 50 μl mixture containing PDE assay buffer (10 mM Tris-HCl, pH7.4, 10 mM MaCl2, 0.05% Tween 20), 100 nM FAM-cAMP, a PDE enzyme and a test compound.
After the enzymatic reaction, 100 μl of a binding solution (1:100 dilution of the binding agent, which contains the nano beads that recognize FAM-AMP, with the binding agent diluent) was added to each reaction and the reaction was performed at room temperature for 60 minutes. Fluorescence intensity was measured at an excitation of 485 nm and an emission of 528 nm using a Tecan Infinite M1000 microplate reader. Assays done by Millipore were conducted similarly with changes noted below:
Hedgehog signaling inhibition and PDE4 inhibition of various compounds disclosed herein was assayed as described herein above.

[2] = human cancer cells, read-out: CELL KILLING EC50 (μM) Colon RKO
[3] = SW480, human cancer cells, read-out: CELL KILLING EC50 (μM) Colon SW480

T1 sequence (Q08499 1-673 isoform Q08499-2): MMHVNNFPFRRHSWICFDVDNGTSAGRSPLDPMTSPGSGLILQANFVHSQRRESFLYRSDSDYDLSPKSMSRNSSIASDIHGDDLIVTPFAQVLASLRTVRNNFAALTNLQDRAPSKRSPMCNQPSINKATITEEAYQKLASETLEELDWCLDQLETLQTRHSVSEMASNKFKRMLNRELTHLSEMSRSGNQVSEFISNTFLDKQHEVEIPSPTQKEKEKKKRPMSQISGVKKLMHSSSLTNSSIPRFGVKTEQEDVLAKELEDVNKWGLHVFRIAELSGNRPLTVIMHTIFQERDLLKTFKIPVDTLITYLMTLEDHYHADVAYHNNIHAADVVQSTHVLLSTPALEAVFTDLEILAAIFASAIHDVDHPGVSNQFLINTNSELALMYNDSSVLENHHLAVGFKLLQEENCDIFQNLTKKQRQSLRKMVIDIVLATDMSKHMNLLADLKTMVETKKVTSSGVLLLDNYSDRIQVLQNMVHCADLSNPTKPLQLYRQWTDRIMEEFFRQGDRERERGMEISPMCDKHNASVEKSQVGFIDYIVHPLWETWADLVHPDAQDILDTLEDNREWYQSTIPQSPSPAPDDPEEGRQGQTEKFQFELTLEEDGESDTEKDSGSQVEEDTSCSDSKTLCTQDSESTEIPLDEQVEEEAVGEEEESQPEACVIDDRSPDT
T2 sequence (Q08499 303-809): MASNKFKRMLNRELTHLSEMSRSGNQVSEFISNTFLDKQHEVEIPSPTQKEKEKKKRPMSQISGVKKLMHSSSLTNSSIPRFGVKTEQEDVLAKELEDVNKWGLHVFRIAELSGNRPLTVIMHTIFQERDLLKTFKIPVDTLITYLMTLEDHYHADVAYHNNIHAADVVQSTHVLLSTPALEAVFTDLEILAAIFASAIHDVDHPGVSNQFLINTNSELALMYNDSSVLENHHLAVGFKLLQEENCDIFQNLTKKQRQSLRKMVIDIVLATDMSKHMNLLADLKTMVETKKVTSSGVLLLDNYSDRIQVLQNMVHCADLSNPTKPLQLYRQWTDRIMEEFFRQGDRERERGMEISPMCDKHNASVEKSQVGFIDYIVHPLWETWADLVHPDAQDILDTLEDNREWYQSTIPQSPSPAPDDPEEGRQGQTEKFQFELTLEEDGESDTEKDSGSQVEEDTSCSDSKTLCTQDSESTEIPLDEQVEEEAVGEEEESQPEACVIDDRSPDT
Chain of PDE4D (Q08499 1-673 isoform Q08499-2): as the sequence (Q08499 1-673 isoform Q08499-2) above

Row | SMILES | IC50 (PDE4D3; Table 9A) [µM] | IC50 (PDE4D2; Table 9A) [µM] | EC50 ([1]; Table 9A) [µM] | EC50 ([1]; Table 9B) [µM] | IC50 (PDE4D3; Table 9B) [µM] | EC50 (MCF7) [µM] | EC50 (PC3) [µM] | EC50 (B16F11) [µM] | EC50 (RKO; [2]) [µM] | EC50 (HeLa) [µM] | EC50 (RWGT2) [µM] | EC50 (DaoY) [µM] | EC50 (DU145) [µM] | EC50 (HCT116) [µM] | EC50 (MDA-MB- 231) [µM] | EC50 (SW480; [3]) [µM] | CELL KILLING EC50 (μM) Lung H82 (H82) | EC50 (H82) [µM] | further results
1 | C=C(C)Cn1c(SCC(=O)N2Cc3ccccc3C2)nc2sc3c(c2c1=O)CCCC3 [Formula 1KMT] | 30 | 46 | > 20 |  |  | 1.08 | 74 | 61.7 | 75.6 | 49.7 | 51.1 | 58.2 | 32.4 | 89.2 | 68.3 | 4.89 | UnCh |  | 
2 | C=CCn1c(SCC(=O)N2CCN(C)CC2)nc2sc3c(c2c1=O)CCCC3 [Formula 1KN7] | 1.8 | 1.7 | 5 to 10 |  |  |  | 45.7 | 25.8 | 8.39 | 27.5 | 28.4 | 58.6 | 91.4 | 21.3 | 10.3 | 0.0574 | UnCh |  | CELL KILLING EC50 (μM) Breast MCF7 (MCF7): UnCh; EC50 (RKO; 72 h, read-out: EC50 (50% reduction of viable cell count at 72 hours), Human Colon Carcinoma): 8.39 µM; EC50 (SW480; 72 h, read-out: EC50 (50% reduction of viable cell count at 72 hours), SW480, Human Colorectal Adenocarcinoma): 0.057 µM; IC50 [1]: 10 µM; IC50 (PDE4D): 2.1 µM and 2.08 µM
3 | C=C(C)Cn1c(SCC(=O)c2ccc(-c3ccccc3)cc2)nc2sc3c(c2c1=O)CCCC3 [Formula 1KXQ] | > 100 | > 100 | > 20 |  |  |  | 41.1 | 28.7 |  | 12.2 | 80.9 | 46.8 | 0.029 | 12 | > 100 | 44 | UnCh |  | CELL KILLING EC50 (μM) Breast MCF7 (MCF7): UnCh; CELL KILLING EC50 (μM) Colon RKO (RKO; human cancer cells): UnCh

The next lines start with results.

Row | IC50 (PDE4D3; Table 9A) [µM] | IC50 (PDE4D2; Table 9A) [µM] | EC50 ([1]; Table 9A) [µM] | EC50 ([1]; Table 9B) [µM] | IC50 (PDE4D3; Table 9B) [µM] | SMILES | EC50 (MCF7) [µM] | EC50 (PC3) [µM] | EC50 (B16F11) [µM] | EC50 (RKO; [2]) [µM] | EC50 (HeLa) [µM] | EC50 (RWGT2) [µM] | EC50 (DaoY) [µM] | EC50 (DU145) [µM] | EC50 (HCT116) [µM] | EC50 (MDA-MB- 231) [µM] | EC50 (SW480; [3]) [µM] | CELL KILLING EC50 (μM) Lung H82 (H82) | EC50 (H82) [µM] | further results
4 |  |  |  | > 10 |  | C=CCn1c(SCC(=O)c2ccccc2)nc2sc(C)cc2c1=O [HI277] | > 100 | > 100 | > 100 | > 100 | 5.11 | 30.5 | 247 | 180 | 136 | 186 | 0.03 |  | > 100 | 
5 |  |  |  | > 10 |  | Cn1c(SCC(=O)c2ccc(F)cc2)nc2sc3c(c2c1=O)CCCC3 [HI302] | > 100 | > 100 | 16 | 0.0096 | 20.2 | 22.9 | 26.6 | 0.078 | 21.9 | 18.7 | 3.3 |  | > 100 | 
6 |  |  |  | > 10 | 20 | CCCCn1c(SCC(=O)c2ccccc2)nc2sc3c(c2c1=O)CCC3 [HI352] | > 100 | 0.03 | 109 | 100 | 114 | 73.8 | 100 | 98.1 | 74.7 | 84.5 | 0.287 |  | > 100 | 
7 |  |  |  | 4.6 to 9.5 |  | C=CCn1c(SCC(=O)c2ccc(Cl)s2)nc2sc(C)c(C)c2c1=O [HI499] | 2.67 | 202 | 46 | 35.7 | 441 | 45.8 | 177 | 48.8 | 28.1 | > 100 | 0.69 |  | > 100 | 
8 |  |  |  | > 10 | 6 | C=CCn1c(SCC(=O)c2ccccc2)nc2sc(CC)cc2c1=O [HI630] | > 100 | > 100 |  | 100 | > 100 | 44.4 | > 100 | > 100 |  | 23.1 | 182 |  | > 100 | 
9 |  |  |  | < 1 | 14 | C=CCn1c(SCC(=O)c2ccccc2)nc2scc(-c3ccccc3)c2c1=O [HI696] | > 100 | > 100 | 0.0066 | > 100 | 3.75 | 64.9 | 2.95 | > 100 | 3.2 | 1.2 | 2.6 |  | > 100 | IC50 (PDE4D2; Table 9B): 7.4 µM
10 |  |  |  | 2.44 |  | C=C(C)Cn1c(SCC(=O)c2ccc(F)cc2)nc2sc3c(c2c1=O)CCCC3 [HI0863] | > 100 | 47.7 | 4.46 | 42.8 | 12.2 | 38.8 | 39.8 | 2.38 | 0.078 | 3.12 | 5.4 |  | > 100 | 
